Data taken from patent US9670199B2, “Ergoline derivatives as dopamine receptor modulators” (REGENTS OF THE UNIVERSITY OF MINNESOTA, priority 2012, dated 2017).

Columns and labels:
5-HT2B receptor [1] = target: T1, 5-HT2B receptor (Homo sapiens, UniProt P41595); assay: 5-HT2B functional assay (agonism), HTRF quantitation of IP1 accumulation; format: cell-based; conditions: for 5-HT2B agonism (type of agonist): result in words
From the text: (§1) The biological activity of representative compounds of the invention can be determined using a number of assays that are known.

male rats = assay: Effects on sexual function in rats; format: in vivo, rat; conditions: gavage
From the text: Effects of Cabergoline on Sexual Function in Rats. […] This can be tested by seeing whether it can potentiate the induction of a conditioned partner preference. For example, a study could be performed where rats take the drug immediately before their first sexual experience with an almond scented female and 4 days later the cabergoline rats are put in an open field with two females, one scented and the other unscented. Males given their first, e.g., 10, copulatory experiences with scented females would show a significant conditioned ejaculatory preference to ejaculate preferentially with the scented female. […] Cabergoline could also be similarly tested on males that have had their ejaculations reduced to near zero by chronic administration of the SSRI fluoxetine. SSRIs are known to induce anorgasmia, and currently there is no treatment for this side effect.

5-HT2B receptor [2] = target: T1, 5-HT2B receptor; assay: 5-HT2B functional assay, antagonism against serotonin; format: cell-based; conditions: result in words
Experimental: (§2) The biological activity of representative compounds of the invention can be determined using a number of assays that are known. For example, 5-HT2B functional assays were performed following the procedure reported by Porter, R. H. P., et al., Br. J. Pharmacol. 1999, 128, 13-20. 5-HT2B binding assays were performed following the procedure reported by Choi, D.-S., et al., FEBS Lett. 1994, 352, 393-399, using an agonist radioligand. D2 and D4 functional assays were performed following the method reported by Jensen, N. H., et al., Neuropsychopharmacology 2007, 33, 2303-2312.

D2 receptor = D2 receptor (Homo sapiens, UniProt P14416); assay: D2 functional assay; format: cell-based
D2 receptor, sequence (P14416 whole entry): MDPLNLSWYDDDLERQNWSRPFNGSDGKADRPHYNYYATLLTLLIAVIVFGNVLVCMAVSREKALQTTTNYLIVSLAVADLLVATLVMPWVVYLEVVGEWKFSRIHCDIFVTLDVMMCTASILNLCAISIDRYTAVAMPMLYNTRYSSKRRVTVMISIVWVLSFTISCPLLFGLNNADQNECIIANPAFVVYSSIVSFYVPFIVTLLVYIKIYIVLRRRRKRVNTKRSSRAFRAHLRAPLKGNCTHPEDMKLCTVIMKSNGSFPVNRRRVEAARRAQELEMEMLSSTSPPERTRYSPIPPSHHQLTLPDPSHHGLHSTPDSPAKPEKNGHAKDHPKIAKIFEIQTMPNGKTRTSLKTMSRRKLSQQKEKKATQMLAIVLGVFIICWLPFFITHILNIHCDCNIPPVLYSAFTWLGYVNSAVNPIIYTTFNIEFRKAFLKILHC
Experimental: as §2

D4 receptor = target: T2, D4 receptor (Homo sapiens, UniProt P21917); assay: D4 functional assay; format: cell-based; conditions: result in words
T2 sequence (P21917 1-419): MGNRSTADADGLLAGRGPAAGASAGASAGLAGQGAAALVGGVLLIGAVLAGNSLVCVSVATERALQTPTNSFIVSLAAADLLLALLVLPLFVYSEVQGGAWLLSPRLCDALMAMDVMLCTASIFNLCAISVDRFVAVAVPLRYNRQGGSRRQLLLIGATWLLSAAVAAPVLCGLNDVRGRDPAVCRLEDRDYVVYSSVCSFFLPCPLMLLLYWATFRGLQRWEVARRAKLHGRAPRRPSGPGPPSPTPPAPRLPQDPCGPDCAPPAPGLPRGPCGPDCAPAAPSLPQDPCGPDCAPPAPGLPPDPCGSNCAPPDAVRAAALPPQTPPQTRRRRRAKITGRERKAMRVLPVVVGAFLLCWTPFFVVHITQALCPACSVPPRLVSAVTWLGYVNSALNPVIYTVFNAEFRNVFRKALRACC
Experimental: as §2

5-HT2B receptor [3] = target: T1, 5-HT2B receptor; assay: 5-HT2B competitive binding assay against 125I-radiolabeled 2,5-dimethoxy-4-iodoamphetamine (agonist radioligand); conditions: result in words
From the text: as §1

T1 sequence (P41595 whole entry): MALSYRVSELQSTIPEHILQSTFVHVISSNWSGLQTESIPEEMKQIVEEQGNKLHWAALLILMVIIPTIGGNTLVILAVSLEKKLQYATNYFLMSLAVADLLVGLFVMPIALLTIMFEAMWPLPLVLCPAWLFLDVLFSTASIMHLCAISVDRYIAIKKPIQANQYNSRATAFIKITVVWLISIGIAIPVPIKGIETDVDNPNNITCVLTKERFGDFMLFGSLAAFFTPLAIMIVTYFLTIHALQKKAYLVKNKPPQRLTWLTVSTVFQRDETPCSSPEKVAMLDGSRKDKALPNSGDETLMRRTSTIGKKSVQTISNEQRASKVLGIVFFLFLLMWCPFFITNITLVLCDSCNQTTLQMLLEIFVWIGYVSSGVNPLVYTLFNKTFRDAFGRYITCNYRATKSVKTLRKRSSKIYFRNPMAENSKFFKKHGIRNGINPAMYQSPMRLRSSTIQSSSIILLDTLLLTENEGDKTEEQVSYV

C=CCN1C[C@H](C(=O)N(CCCN(C)C)C(=O)NCC)C[C@@H]2c3cccc4[nH]cc(c34)C[C@H]21 [cabergoline]
5-HT2B agonism (type of agonist) (5-HT2B receptor [1]): full agonists | anticipatory level changes prior to copulation (anticipatory desire) (male rats): increased | ejaculation latencies vs controls (male rats): shorter ejaculation latencies | intromissions before ejaculation vs controls (male rats): more intromissions | number of ejaculations vs controls (male rats): significantly more times

COC(OC)[C@@H]1C[C@@H]2c3cccc4c3c(cn4C)C[C@H]2N(C)C1 [Compound 15]
5-HT2B agonism (type of agonist) (5-HT2B receptor [1]): no agonism | 5-HT2B antagonism against serotonin (5-HT2B receptor [2]): potent antagonists

CCNC(=O)N(CCCN(C)C)C(=O)[C@@H]1C[C@@H]2c3cccc4c3c(cn4C)C[C@H]2N(C)C1 [Compound 9, 1,6-Dimethylcabergoline]
5-HT2B agonism (type of agonist) (5-HT2B receptor [1]): no agonism | 5-HT2B antagonism against serotonin (5-HT2B receptor [2]): potent antagonists | EC50 (D2 receptor): 1.4 nM | Emax (D2 receptor): 50% | D2 agonism (type of agonist) (D2 receptor; result in words): potent but partial D2 agonist | D4 agonism (type of agonist) (D4 receptor): full D4 agonist

C=CCN1C[C@H](C(=O)N(CCCN2CCOCC2)C(=O)NCC)C[C@@H]2c3cccc4[nH]cc(c34)C[C@H]21 [Compound 1, (5R,8R,10R)-6-Allyl-N-[3-(morpholino)propyl]-N-[(ethylamino)carbonyl]-ergoline-8-carboxamide]
activity/potency at 5-HT2B receptor in radioactive binding assay, compared with cabergoline (5-HT2B receptor [3]): not significantly less active | 5-HT2B agonism (type of agonist) (5-HT2B receptor [1]): full agonists

CN(C)CCCNC(=O)[C@@H]1C[C@@H]2c3cccc4c3c(cn4C)C[C@H]2N(C)C1 [Compound 14, (5R,8R,10R)-1,6-Dimethyl-N-[3-(dimethylamino)propyl]ergoline-8-carboxamide]
Emax (5-HT2B receptor [1]; read-out: 5-HT2B Emax): < 12% | 5-HT2B agonism (type of agonist) (5-HT2B receptor [1]): minimal to no agonism | 5-HT2B antagonism against serotonin (5-HT2B receptor [2]): potent antagonists
